# Assay results published in patent US20110245334A1, “USE OF RACEMATES OF PINOCEMBRIN IN PREPARING MEDICAMENTS FOR TREATING STROKE” (CSPC Zhonggi Pharmaceutical Technology (Shijiazhuang) Co. …, priority 2008, published 2011).
# Columns and labels:
# MCAO rats = test: Cerebral edema and Evans blue / fluorescein sodium leakage, MCAO; assay type: in vivo, rat; details: 24 hours
# Procedure: After surgery, a mixture solution of EB/NF (0.5%, dissolved in normal saline) of 0.25 ml was immediately (immediately after administration in the administration groups) injected via tail vein in the animals. 24 hours later, a normal saline was perfused in the hearts of the rats to get rid of unbound dye. The rats were decollated and the brain tissues were promptly removed and separated into ischemic hemisphere and non-ischemic hemisphere. The two hemispheres were weighted respectively and homogenated with 7.5% (w/v) trichloroacetic acid (TCA). The homogenate was divided into two parts, in which 1 ml homogenate was adjusted with 52 μl NaOH (5N) to reach a neutral pH value, and 200 μl of it was taken out to determine the fluorescence intensity (excitation 485 nm, emission 535 nm), the NF thereof was determined by using a standard curve made with NF solutions of concentration series. Another part of homogenate was centrifuged for 20 min at 12000 g and 4° C. 200 μl supernatant was taken out to a microplate and its absorbance was determined at 620 nm, and EB thereof was determined by using a standard curve made with EB solutions of concentration series. The results were expressed in form of μg EB (or NF)/g brain wet weight. Percentage of brain edema was expressed as: (brain weight in ischemic hemisphere−brain weight in non-ischemic hemisphere)/brain weight in non-ischemic hemisphere×100%.
# [1] = test system: cerebral ischemic tissue in MCAO rats; test: Energy metabolism indexes in cerebral ischemic tissue, MCAO; assay type: in vivo, rat; details: for increase of energy index relative to the model group: 24 hours of cerebral ischemia; for ADP / AMP / ATP / CrP / Energy Load: cerebral ischemic tissue, MCAO rats
# From the text: The obtained r values were respectively rATP=0.9897, rADP=0.9896, rAMP=0.9893, rCrP=0.9981. The recovery rates of 4 kinds of standard materials were respectively (86.6±5.6) %, (94.45±7.5) %, (83.4±6.1) %, (78.69±7.3) %.
# NO and TNF-α = NO and TNF-α contents in MCAO rats' serum; assay type: in vivo, rat; details: 24 hours after ischemia
# [2] = test system: TNF-α, IL-1β, ICAM-1, VCAM-1, iNOS, AQP-4; test: Expression of TNF-α, IL-1β, ICAM-1, VCAM-1, iNOS and AQP-4 in ischemic cerebral tissue (FIG. 2); assay type: in vivo, rat
# From the text: B is a statistic chart that quantifies the expression of TNF-α, IL-1β, ICAM-1, VCAM-1, iNOS and AQP-4 with β-actin as internal standard.
# With β-actin as internal standard, the expressions of TNF-α, IL-1β, ICAM-1, VCAM-1, iNOS, AQP-4 were quantified, and the inhibition effects of pinocembrin racemate on the above proteins were seen intuitively.
# tMCAO rats = test: Therapeutic time window in focal cerebral ischemia-reperfusion injured rats; assay type: in vivo, rat; details: 1 mg/kg, 5 mg/kg; for effect on neurobehavioral injury, infarct volume and cerebral edema: tMCAO rats
# Procedure: 1. In the test, transient middle cerebral artery occlusion (tMCAO) model of rats was adopted. The reperfusion was performed after focal cerebral ischemia for 2 hours so as to inspect therapeutic time window of pinocembrin after focal cerebral ischemia. The rats were administered by pinocembrin racemate (1 mg/kg, 5 mg/kg, intravenous injection) after reperfusion 1 hour, 4 hours and 6 hours (i.e., ischemia 3 hour, 6 hours and 8 hours). (R)-pinocembrin and (S)-pinocembrin (1 mg/kg, 5 mg/kg, intravenous injection) were administered after reperfusion 1 hour and 4 hours (i.e., ischemia 3 hour and 6 hours). The therapeutic time windows of these drugs in focal cerebral ischemia were assessed by studying their effects to neurological symptom scores, infarct sizes and brain water contents during 24 hours after tMCAO.
# 2.4 Experimental Grouping and Administration • Sham operation group (intravenous injection of normal saline after 3 hours of ischemia); • Model group (intravenous injection of 50 mg/kg hydroxypropyl β-cyclodextrin after 3 hours of ischemia); • Nimodipine group (1 mg/kg, administered after 3 hours of ischemia); • Pinocembrin racemate group (1 mg/kg, 5 mg/kg, administered after 3, 6 and 8 hours of ischemia); • (R)-pinocembrin group (1 mg/kg, 5 mg/kg, administered after 3 and 6 hours of ischemia); • (S)-pinocembrin group (1 mg/kg, 5 mg/kg, administered after 3 and 6 hours of ischemia).
# First administration was performed by intravenous injection, and intraperitoneal injection was carried out once 12 hours later with a dose 1.5 times of that for intravenous injection.
# in vivo = details: SD, rat, iv
# [3] = 24 h after ischemia, 3 mg/kg, 10 mg/kg, 30 mg/kg in early stage of ischemia, FIG. 2
compound,measurement,setting,value
"O=C1CC(c2ccccc2)Oc2cc(O)cc(O)c21 (racemic) [Pinocembrin racemate, pinocembrin racemate]",EB leakage (μg/g tissue),MCAO rats; 3 mg/kg iv,6.16 ± 0.4 μg/g tissue
same,NF leakage (μg/g tissue),MCAO rats; 3 mg/kg iv,1.48 ± 0.08 μg/g tissue
same,Percentage of brain edema volume (%),"MCAO rats; 3 mg/kg iv, 3 mg/kg",5.5±1.7%
same,EB leakage (μg/g tissue),MCAO rats; 10 mg/kg iv,5.03 ± 0.8 μg/g tissue
same,NF leakage (μg/g tissue),MCAO rats; 10 mg/kg iv,1.39 ± 0.20 μg/g tissue
same,Percentage of brain edema volume (%),"MCAO rats; 10 mg/kg iv, 10 mg/kg",4.1±1.5%
same,EB leakage (μg/g tissue),MCAO rats; 30 mg/kg iv,4.39 ± 0.4 μg/g tissue
same,NF leakage (μg/g tissue),MCAO rats; 30 mg/kg iv,1.30 ± 0.15 μg/g tissue
same,Percentage of brain edema volume (%),"MCAO rats; 30 mg/kg iv, 30 mg/kg",3.2±2.1%
same,increase of energy index relative to the model group,"[1]; first of two values printed for groups 3, 10, 30 mg/kg",34.6%
same,increase of energy index relative to the model group,"[1]; second of two values printed for groups 3, 10, 30 mg/kg",45.8%
same,ADP,[1]; 3 mg/kg,0.31 ± 0.04 µmol/g
same,AMP,[1]; 3 mg/kg,0.02 ± 0.00 µmol/g
same,ATP,[1]; 3 mg/kg,1.18 ± 0.18 µmol/g
same,CrP,[1]; 3 mg/kg,3.98 ± 1.23 µmol/g
same,Energy Load,[1]; 3 mg/kg,0.73 ± 0.23
same,ADP,[1]; 10 mg/kg,0.35 ± 0.06 µmol/g
same,AMP,[1]; 10 mg/kg,0.02 ± 0.00 µmol/g
same,ATP,[1]; 10 mg/kg,1.62 ± 0.21 µmol/g
same,CrP,[1]; 10 mg/kg,4.12 ± 1.25 µmol/g
same,Energy Load,[1]; 10 mg/kg,0.88 ± 0.23
same,ADP,[1]; 30 mg/kg,0.38 ± 0.05 µmol/g
same,AMP,[1]; 30 mg/kg,0.02 ± 0.00 µmol/g
same,ATP,[1]; 30 mg/kg,1.97 ± 0.58 µmol/g
same,CrP,[1]; 30 mg/kg,4.43 ± 1.34 µmol/g
same,Energy Load,[1]; 30 mg/kg,0.96 ± 0.29
same,NO,NO and TNF-α; 3 mg/kg,109.80 ± 9.38 µmol/L
same,TNF-α,NO and TNF-α; 3 mg/kg,1163.09 ± 51.12 pg/mL
same,NO,NO and TNF-α; 10 mg/kg,107.11 ± 9.13 µmol/L
same,TNF-α,NO and TNF-α; 10 mg/kg,1104.83 ± 48.43 pg/mL
same,NO,NO and TNF-α; 30 mg/kg,104.75 ± 5.03 µmol/L
same,TNF-α,NO and TNF-α; 30 mg/kg,1057.48 ± 48.48 pg/mL
same,expression of cytokines TNF-α and IL-1β in cerebral ischemia tissue,[2]; [3],"inhibited the expression of TNF-α, IL-1β in some extents"
same,expression of iNOS and AQP-4 protein,[2]; [3],inhibited the expression of iNOS and AQP-4 protein in some extents
same,"inhibition of expression of TNF-α, IL-1β, ICAM-1, VCAM-1, iNOS, AQP-4 quantified with β-actin as internal standard",[2]; doses of 10 mg/kg and 30 mg/kg,showed better results
same,therapeutic time window,"tMCAO rats; acute ischemic stroke in rats (tMCAO), iv",about 6 hours
same,"effect on neurobehavioral injury, infarct volume and cerebral edema",tMCAO rats; initially injected after 3 hours of ischemia,significant
same,"effect on neurobehavioral injury, infarct volume and cerebral edema",tMCAO rats; initially injected after 6 hours of ischemia,significant
same,LD50,in vivo,491 mg/kg
